Test results taken from patent US7196083B2, “Heteropolycyclic inhibitors of protein kinases” (priority 2000, dated 2007).
Converted amounts (≈) assume the structure as drawn.

Legend:
[1] = test system: PC3 (human prostate carcinoma); test: [3H] thymidine uptake cell proliferation assay, PC3; type: cell-based; settings: PC-3, read-out: Cell Proliferation Effects (IC50 (nM))
[2] = test system: HT-29 human colon carcinoma; test: [3H] thymidine uptake cell proliferation assay, HT29; type: cell-based; settings: read-out: Cell Proliferation Effects (IC50 (nM))
[3] = test system: human breast carcinoma MDA-MB-435 cell line; test: [3H] thymidine uptake cell proliferation assay, MDA435; type: cell-based; settings: read-out: Cell Proliferation Effects (IC50 (nM))
Protocol: The human breast carcinoma MDA-MB-435 cell line was obtained from MD Anderson Cancer Center, and cultured in alpha-MEM media supplemented with 10% Fetal Bovine Serum. Cells were maintained in T150 tissue culture flasks, and grown at 37° C. in a humidified 5% CO2 incubator. All cells were passaged regularly using 0.25% Trypsin-EDTA in order to maintain cells at exponential growth for various experiments. LS 180 cells were passaged without trypsin and were physically scraped off the culture flasks. In vitro [^3H] thymidine uptake assay. Proliferation can be measured by quantifying the amount of [^3H] thymidine uptake into cells using a β-counter, and therefore is a well-established diagnostic tool to measure DNA synthesis within the cells. […] The cells were allowed to adhere to the plates via incubation at 37° C. in 5% CO2 for 12–14 hours. […] Then, 10 μL of the compound was added to the pre-existing 90 μL per well, and incubated further at 37° C. in 5% CO2 for 20 hours. To measure thymidine incorporation, cells were fixed onto the culture wells by slowly adding ¼^th volume of cold 50% TCA into each well (25 μL to each well) and incubated for 1–2 hours at 4° C. […] Then, 100 μL of scintillation fluid was added to each well and the activity counted using a Wallac Microbeta Counter.

[4] = test system: LL2 Lewis Lung human lung carcinoma; test: [3H] thymidine uptake cell proliferation assay, LL2; type: cell-based; settings: LL/2, read-out: Cell Proliferation Effects (IC50 (nM))
in vivo = settings: mouse, ip, 2 mg/kg
Protocol: A pharmacokinetics (PK) study was performed on KP-23172 formulated in 20% propylene glycol and 20% hydroxypropyl-B-cyclodextrin, administered intraperitoneally (i.p.) at 2 mg/kg. Plasma samples obtained at various time points were sent to BRI Biopharmaceutical Research Inc., Burnaby, BC, Canada for analysis by Liquid Chromatography/Mass Spectroscopy (LC/MS). Electrospray LC/MS/MS data was acquired in the multiple-reaction-monitoring mode (MRM) in which m/z 225.00>114.20 was monitored for KP-23172 as its [M+H]^+ transition to an ion fragment of m/z 114.2. A mass ion transition of m/z 300.00>165.10 was being monitored for codeine as an internal standard. MRM chromatograms of mouse plasma standard curve samples spiked with 1 and 5000 ng/ml were performed as controls. Plasma calibration standard curves were established based on 1/y linear regression of plasma concentrations of KP-23172 against peak area ratio to the internal standard. The calculated KP-23172 plasma concentrations were based on the assay of 0.05 ml of plasma volume used in the assay and reported as ng/ml concentration. A summary of the KP-23172 plasma concentrations observed in 20 samples from 4 mice is presented in FIG. 2 as a semi-logarithmic plot of the plasma concentrations against blood collection times.

[5] = biological target: PKB, full-length recombinant bovine protein, alpha form (Bos taurus, UniProt Q01314); test: PKB inhibition in vitro enzyme assay (radioactive phosphate incorporation, scintillation counting); type: biochemical; settings: PKB in vitro enzyme assay, 15 min at room temperature
[6] = test system: NIH-3T3 (murine embryonic fibroblasts); test: [3H] thymidine uptake cell proliferation assay, NIH3T3; type: cell-based; settings: Mus musculus; NIH3T3, non-tumorigenic cell line; read-out: Cell Proliferation Effects (IC50 (nM))
[7] = test system: B16-F10 (murine melanoma); test: [3H] thymidine uptake cell proliferation assay, B16F10; type: cell-based; settings: Mus musculus, read-out: Cell Proliferation Effects (IC50 (nM))
[8] = In vivo xenograft model, tumour growth; settings: 2.5 mg/kg daily i.p. in DMSO, day 15, athymic (Rag2M) female mice; control 100%
Protocol: Mice were inoculated subcutaenously in the rear flank with […] (LS180) and then injected daily with KP-23172 i.p. Tumour measurements were taken daily. A group of 8 athymic (Rag2M) female mice were used as a murine allograft model for the test compound, which was administered in DMSO. 8 control mice received no test compound. Mice were inoculated with tumour cells subcutaneously in the rear flank and then injected with test compound daily intraperitoneally. Tumors were measured and the size calculated, with the objective being a reduction in tumor growth compared to controls. […] Results are illustrated in FIG. 4.

[9] = test system: SKOV-3 (human ovarian carcinoma); test: [3H] thymidine uptake cell proliferation assay, SKOV3; type: cell-based; settings: SK-OV-3, read-out: Cell Proliferation Effects (IC50 (nM))
physchem = test: physchem
Text: Solubility of KP-23172 was studied in various percent solutions of hydroxypropyl-B-cyclodextrin in water.

Sequence of PKB, full-length recombinant bovine protein, alpha form (Q01314 whole entry): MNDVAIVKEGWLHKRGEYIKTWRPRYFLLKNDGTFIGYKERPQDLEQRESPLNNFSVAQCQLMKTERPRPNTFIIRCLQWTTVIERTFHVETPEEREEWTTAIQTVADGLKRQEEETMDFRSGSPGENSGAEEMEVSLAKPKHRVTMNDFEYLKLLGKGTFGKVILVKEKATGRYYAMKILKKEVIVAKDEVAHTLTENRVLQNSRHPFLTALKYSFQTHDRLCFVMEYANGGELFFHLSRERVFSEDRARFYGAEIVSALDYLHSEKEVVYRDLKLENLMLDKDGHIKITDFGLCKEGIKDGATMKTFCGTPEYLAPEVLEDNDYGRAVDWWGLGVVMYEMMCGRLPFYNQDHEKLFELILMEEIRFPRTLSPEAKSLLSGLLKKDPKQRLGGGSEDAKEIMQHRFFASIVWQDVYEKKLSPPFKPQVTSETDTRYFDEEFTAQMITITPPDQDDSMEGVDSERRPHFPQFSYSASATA

`O=C1c2ccccc2-c2nc3nnnn3nc21` [KP-23172] gave an IC50 [1] of 250 nM, an IC50 [2] of 200 nM and an IC50 [3] of 60 nM. The IC50 [4] was 400 nM, the concentration at 15 min (in vivo) was about 500 ng/mL and the concentration at 60 min (in vivo) was about 100 ng/mL. The half-life (in vivo) was “about ½”, the IC50 [5] was 15000 nM and the IC50 [6] was 150 nM. It also gave an IC50 [7] of 400 nM, a tumor take rate [8] of 62.5% and an IC50 [9] of 200 nM. The “1:1 binding constant for the cyclodextrin inclusion complex” value (physchem) was 474, the solubility (physchem; aqueous with cosolvent or surfactant or cyclodextrin) was 728 µg/mL (≈ 3250 µM) and the solubility (physchem; water) was 77 µg/mL (≈ 343 µM).
